Experiments:
subcutaneous solid tumor = assay: Inhibition of tumor growth in subcutaneous solid tumor mouse models; assay type: in vivo, BALB/c nude mice; conditions: no laser; tail vein, DOX 2 mg/kg, PCN-224 12 mg/kg, DOX@PCN-224 and DOX@Gal-PCN-224 14 mg/kg; last day (day 21) versus saline
Description: To construct subcutaneous solid tumor mouse models, male BALB/c nude mice with the average weight of 14-17 g at the age of 4 weeks were inoculated with 0.1 ml of 6×10^6 cells/ml PBS at the right gluteus. After four weeks, when the tumor size exceeded 200 mm^3 (volume=0.52×tumor length×tumor width^2), the mice were divided into 2 groups with 5 mice in each group. The DOX@PCN-224-RhB (0.1 mL 0.4 mg/mL) and DOX@Gal-PCN-224-RhB (0.1 mL 0.4 mg/ml) were injected into the tail vein respectively. The fluorescence signal of RhB was detected by a small animal imager (Bruker In Vivo Xtreme II) at set time points (3, 6, 12, 24, 48 hours). Then the mice were sacrificed, the heart, liver, spleen, lung and kidney were isolated, and the RhB fluorescence signal of each organ was detected.
When the subcutaneous tumor size of the mice exceeded 50 mm^3, the mice were randomly divided into 9 groups with 5 mice in each group: (1) saline, (2) free DOX saline (2 mg/kg), (3) free DOX+660 nm laser (2 mg/kg), (4) PCN-224 (12 mg/kg), (5) PCN-224+660 nm laser (12 mg/kg), (6) DOX@PCN-224 (14 mg/kg), (7) DOX@PCN-224+660 nm laser (14 mg/kg), (8) DOX@Gal-PCN-224 (14 mg/kg), and (9) DOX@Gal-PCN-224+660 nm laser (14 mg/kg). […] At the specified time points (days 3, 6, 9, 12, 15, 18, and 21), the tumor volume and mouse body weight of the experimental groups were measured. […]

Huh7 cells [1] = assay: MTT in vitro therapeutic effect; assay type: cell-based, human; conditions: 10 μg/mL DOX, 60 μg/mL PCN-224, 70 μg/mL DOX@PCN-224 or DOX@Gal-PCN-224
Description: (§1) The in vitro therapeutic effect of the inorganic nanomaterial DOX@Gal-PCN-224 was detected by the live and death staining method and the corresponding MTT experiment.
(§2) Human hepatoma cells Huh7 were inoculated in a laser confocal culture dish (35 mm) at the density of 8×10^4 per well. After culturing for 24 hours, the cells were incubated with a medium containing 10 μg/mL DOX, 60 μg/mL PCN-224, 70 μg/mL DOX@PCN-224 (with the drug loading ratio of 14.2, and the DOX content of about 10 μg/mL) or 70 μg/mL DOX@Gal-PCN-224 (with the drug loading ratio of 14.2, and the DOX content of about 10 μg/mL) respectively for 24 hours. Then the light group was irradiated with a 660 nm light source for 10 min. After incubating for 24 hours, Calcein-AM/PI live and dead co-staining was performed. Finally, the cells were observed under the confocal laser. After the same treatment, the therapeutic effect of each group was further quantified by the MTT experiment.

Huh7 cells [2] = assay: Calcein-AM/PI live and dead staining, in vitro therapeutic effect; assay type: cell-based, human; conditions: 10 μg/mL DOX, 60 μg/mL PCN-224, 70 μg/mL DOX@PCN-224 or DOX@Gal-PCN-224
Description: as §1, §2

In the case of `COc1cccc2c1C(=O)c1c(O)c3c(c(O)c1C2=O)C[C@@](O)(C(=O)CO)C[C@@H]3O[C@H]1C[C@H](N)[C@H](O)[C@H](C)O1` [DOX, doxorubicin], the Tumor inhibition efficiency (subcutaneous solid tumor) is reported as 49.8%, the Cell viability (Huh7 cells [1]; Huh7, + 660 nm laser 10 min) is reported as 79% and the Cell viability (Huh7 cells [1]; Huh7, no laser) is reported as 82%. For the same compound, the “live and dead staining (red fluorescence = dead cells, apoptosis)” value (Huh7 cells [2]; Huh7, 660 nm light 10 min) was “only sporadic red fluorescence” and the “live and dead staining (red fluorescence = dead cells, apoptosis)” value (Huh7 cells [2]; Huh7, no light) was “only sporadic red fluorescence”.

Source: patent US12128111B2, “Glyco-metal-organic frameworks-based hepatic targeted therapeutic drug and preparation method thereof” (Jiangnan University, priority 2019, dated 2024)
